We go through two compounds from US10111431B2, “Application of biofilm formation inhibiting compounds enhances control of citrus canker” (priority 2013, dated 2018).

The subject of test [1] is Xac 306 on grapefruit leaves. The test is described as follows: Plant test in greenhouse, spray inoculation of grapefruit leaves. Type of test: in vivo, Xanthomonas citri subsp. citri. Particulars: for level of canker lesions on sprayed leaves / canker symptom development on grapefruit leaves (lesion numbers): D-leucine 10 mM, IAN 100 μg/mL; for level of canker lesions on sprayed leaves: CuSO4 100 μg/mL; for canker symptom development on grapefruit leaves: applied after (6 h) the pathogen inoculation; for canker symptom development on grapefruit leaves (lesion numbers): applied along with or prior to (6 h) pathogen inoculation; for log reduction in the number of CFU compared to untreated control: grapefruit leaves, 7 to 28 days after inoculation. The method, then: The effect of selected biofilm inhibitors on Xac infection/virulence-was investigated using 20-week-old potted grapefruit (Citrus paradise cv. Duncan grapefruit) plants in a quarantine greenhouse at the Citrus Research and Education Center, Lake Alfred, Fla. Copper (CuSO4, 100 μg/mL), D-leucine (10 mM), IAN (100 μg/mL) and a combination of these compounds were individually prepared in 100 ml of SDW. Bacterial inoculum was prepared by growing Xac 306 on NA plates at 28° C. for 48 h, suspending in SDW, adjusting concentration to approximately OD600=0.3 (5×10^8 CFU/mL). The inoculation was performed by a spray method as described previously (Li and Wang, 2012) with modifications. Briefly, the abaxial surfaces of fully expanded, immature leaves of each plant were sprayed with the following treatments: SDW, Xac 306, and Xac 306 combined with CuSO4 (100 μg/mL), D-leucine (10 mM), IAN (100 μg/mL), or a combination of these compounds. Silwett-L77 (silicone-polyether copolymer, Fisher) was added to each treatment at a 0.03% (V/V) final concentration. After inoculation, the plants were covered with plastic bags for 24 h to maintain a high (>90%) relative humidity and then kept in a greenhouse (approximately 60% relative humidity) for symptom development. All inoculations included a minimum of three immature leaves at a similar developmental stage from each plant, and each treatment comprised four plants. The experiments were repeated three times independently. SDW was applied as a negative control, and Xac306 mixed with SDW as positive control. To determine whether the timing of application of biofilm inhibitors in relation to Xac306 affected canker symptom suppression, the biofilm inhibitors were inoculated on leaves 6 h prior to or after inoculation with Xac306.
For bacterial population assays, the leaves of grapefruit plants were inoculated as described above. Two leaf discs randomly selected from each of three inoculated leaves were cut with a cork borer (0.8 cm in diameter) and then ground in 1 mL of SDW. The suspensions were serially diluted and plated on NA plates containing rifamycin. After incubation at 28° C. for 48 h, bacterial colonies were counted and the number of CFU per square centimeter of leaf tissue was calculated. The assays were repeated three times independently.

In the next test the test system is Xac306 biofilm formation. The experiment in a line: Biofilm formation on polystyrene surface and in glass tubes at sub-MIC. Type of test: cell-based, Xanthomonas citri subsp. citri. Conditions: Xanthomonas citri, read-out: level of biofilm formation, % of control. The method, then: A static biofilm formation assay in 96-well polystyrene plates coupled with CV staining was performed as previously reported with modifications (Li and Wang, 2011). Briefly, a 96-well polystyrene plate (Nunclon surface, Nuncbrand, Denmark) was prepared with 170 μL NB plus 1.0% glucose per well. Aliquots of 20 μL each of the different concentrations of the tested compound were pipetted into eight wells containing 170 μL of NB plus 1.0% glucose. To each of these wells was added 10 μL of the standardized overnight Xac 306 culture (OD600=1.0). Control wells contained NB plus 1.0% glucose and SDW or 0.1% DMSO as a sterility control, or standardized overnight Xac 306 culture as a growth control. […] After incubation, the planktonic growth was measured at OD600. To quantify the amount of biofilms formed on the surfaces of the wells, the culture was removed from the wells. […] The eluted CV was 2-fold diluted in double distilled water and the absorbance at 590 nm was measured. […]
To gain further evidence of the effect of selected compounds on biofilm formation, biofilm formation in glass tubes and on leaf surfaces was examined as described previously (Li and Wang, 2012). […] The stain remaining in cells on glass tubes was dissolved in 95% ethanol and quantified by measuring the optical density at 590 nm. […]

As for `CC(C)C[C@@H](N)C(=O)O` [D-leucine], in test [1], the “level of canker lesions on sprayed leaves” value is recorded as “less than that sprayed with the pathogen alone”, the “canker symptom development on grapefruit leaves” value is given as “did not affect the development of canker symptoms”, the “canker symptom development on grapefruit leaves (lesion numbers)” value was “able to reduce canker symptom development” and the “log reduction in the number of CFU compared to untreated control” value was approximately 1.0 log. In addition, the activity at 10000 µM in the test on Xac306 biofilm formation turned out to be 50%.

As for `N#CCc1c[nH]c2ccccc12` [IAN, 3-indolylacetonitrile], in test [1], the “level of canker lesions on sprayed leaves” value was “less than that sprayed with the pathogen alone”, the “canker symptom development on grapefruit leaves” value was “did not affect the development of canker symptoms”, the “canker symptom development on grapefruit leaves (lesion numbers)” value is given as “able to reduce canker symptom development” and the “log reduction in the number of CFU compared to untreated control” value was approximately 1.0 log. Also, the activity at 100 µg/mL in the test with Xac306 biofilm formation (polystyrene surface and glass tubes, 10 mM D-leucine, 100 μg/mL IAN) worked out at 60%.
